Experimental data: publication PMC5061470, “Promiscuous targeting of bromodomains by bromosporine identifies BET proteins as master regulators of primary transcription response in leukemia” (Science Advances, 2016)

Key:
[1] = system: NCI-60 tumor cell lines; format: cell-based, human
[2] = system: K562; format: cell-based, human
[3] = target: AT1 (h) (Homo sapiens, UniProt P30556); assay: biochemical; settings: read-out: % Inhibition of Control Specific Binding
[4] = target: 5-HT6 (h) (Homo sapiens, UniProt P50406); assay: biochemical; settings: read-out: % Inhibition of Control Specific Binding
Sequence of 5-HT6 (h) (P50406 whole entry): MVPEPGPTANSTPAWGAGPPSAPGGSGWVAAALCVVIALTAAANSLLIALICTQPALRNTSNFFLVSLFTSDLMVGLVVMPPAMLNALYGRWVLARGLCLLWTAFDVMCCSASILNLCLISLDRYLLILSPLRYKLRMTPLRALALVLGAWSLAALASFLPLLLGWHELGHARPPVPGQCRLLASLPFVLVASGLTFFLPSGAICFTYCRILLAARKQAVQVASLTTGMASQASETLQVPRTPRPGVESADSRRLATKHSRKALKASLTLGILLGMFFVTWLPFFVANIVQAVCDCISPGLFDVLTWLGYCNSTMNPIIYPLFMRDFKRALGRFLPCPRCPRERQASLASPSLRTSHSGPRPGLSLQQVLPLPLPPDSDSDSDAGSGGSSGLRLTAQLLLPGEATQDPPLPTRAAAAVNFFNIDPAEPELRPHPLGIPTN

[5] = target: H2 (h) (Homo sapiens, UniProt P25021); assay: biochemical; settings: read-out: % Inhibition of Control Specific Binding
[6] = target: T1, TIF1A (Homo sapiens, UniProt O15164); format: binding
T1 construct: Human BRDs were subcloned into bacteria-expressing vectors; made in house; host or cells: bacteria
T1 sequence (O15164 899-1004 limits assumed): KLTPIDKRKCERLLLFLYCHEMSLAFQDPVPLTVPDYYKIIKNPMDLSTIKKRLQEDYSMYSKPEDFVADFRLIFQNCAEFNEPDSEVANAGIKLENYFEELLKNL

[7] = target: FP (h) (Homo sapiens, UniProt P43088); assay: biochemical; settings: read-out: % Inhibition of Control Specific Binding
Sequence of FP (h) (P43088 whole entry): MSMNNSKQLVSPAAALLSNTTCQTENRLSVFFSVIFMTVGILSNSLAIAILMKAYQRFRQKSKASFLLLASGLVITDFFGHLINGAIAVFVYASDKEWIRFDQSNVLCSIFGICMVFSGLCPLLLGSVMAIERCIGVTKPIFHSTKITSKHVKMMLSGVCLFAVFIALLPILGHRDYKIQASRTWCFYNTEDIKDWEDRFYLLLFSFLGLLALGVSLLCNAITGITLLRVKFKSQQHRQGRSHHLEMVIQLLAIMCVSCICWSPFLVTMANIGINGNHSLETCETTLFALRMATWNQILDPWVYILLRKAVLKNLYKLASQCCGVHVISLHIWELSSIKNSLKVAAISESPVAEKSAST

[8] = target: B2 (h) (Homo sapiens, UniProt P30411); assay: biochemical; settings: read-out: % Inhibition of Control Specific Binding
[9] = target: BRD3(2) (Homo sapiens, UniProt Q15059); format: binding
Sequence of BRD3(2) (Q15059 306-415 limits assumed): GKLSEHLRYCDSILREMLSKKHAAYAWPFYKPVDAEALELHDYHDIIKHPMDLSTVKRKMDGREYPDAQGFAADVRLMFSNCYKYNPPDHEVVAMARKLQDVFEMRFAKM

[10] = target: M2 (h) (Homo sapiens, UniProt P08172); assay: biochemical; settings: read-out: % Inhibition of Control Specific Binding
[11] = system: kainate; format: binding
[12] = system: NMDA; assay: CEREP binding, antagonist radioligand
[13] = system: TR (TH); format: binding
[14] = target: T2, CREBBP (Homo sapiens, UniProt Q92793); format: binding
T2 construct: Human BRDs were subcloned into bacteria-expressing vectors; made in house; host or cells: bacteria
T2 sequence (Q92793 1085-1192 limits assumed): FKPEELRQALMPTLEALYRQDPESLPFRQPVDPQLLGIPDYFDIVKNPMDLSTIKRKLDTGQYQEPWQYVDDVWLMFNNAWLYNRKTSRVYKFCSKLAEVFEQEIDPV

[15] = system: MV4;11; assay: cells; format: cell-based, human; settings: Homo sapiens, MV4-11, 72 h, read-out: IC50, cell proliferation
[16] = system: Na+ channel (site 2); format: binding
[17] = target: ETA (h) (Homo sapiens, UniProt P25101); assay: biochemical; settings: read-out: % Inhibition of Control Specific Binding
[18] = target: Ca2+ channel (N) (Rattus norvegicus, UniProt Q02294); assay: biochemical; format: binding; settings: read-out: % Inhibition of Control Specific Binding
Sequence of Ca2+ channel (N) (Q02294 whole entry, looked up): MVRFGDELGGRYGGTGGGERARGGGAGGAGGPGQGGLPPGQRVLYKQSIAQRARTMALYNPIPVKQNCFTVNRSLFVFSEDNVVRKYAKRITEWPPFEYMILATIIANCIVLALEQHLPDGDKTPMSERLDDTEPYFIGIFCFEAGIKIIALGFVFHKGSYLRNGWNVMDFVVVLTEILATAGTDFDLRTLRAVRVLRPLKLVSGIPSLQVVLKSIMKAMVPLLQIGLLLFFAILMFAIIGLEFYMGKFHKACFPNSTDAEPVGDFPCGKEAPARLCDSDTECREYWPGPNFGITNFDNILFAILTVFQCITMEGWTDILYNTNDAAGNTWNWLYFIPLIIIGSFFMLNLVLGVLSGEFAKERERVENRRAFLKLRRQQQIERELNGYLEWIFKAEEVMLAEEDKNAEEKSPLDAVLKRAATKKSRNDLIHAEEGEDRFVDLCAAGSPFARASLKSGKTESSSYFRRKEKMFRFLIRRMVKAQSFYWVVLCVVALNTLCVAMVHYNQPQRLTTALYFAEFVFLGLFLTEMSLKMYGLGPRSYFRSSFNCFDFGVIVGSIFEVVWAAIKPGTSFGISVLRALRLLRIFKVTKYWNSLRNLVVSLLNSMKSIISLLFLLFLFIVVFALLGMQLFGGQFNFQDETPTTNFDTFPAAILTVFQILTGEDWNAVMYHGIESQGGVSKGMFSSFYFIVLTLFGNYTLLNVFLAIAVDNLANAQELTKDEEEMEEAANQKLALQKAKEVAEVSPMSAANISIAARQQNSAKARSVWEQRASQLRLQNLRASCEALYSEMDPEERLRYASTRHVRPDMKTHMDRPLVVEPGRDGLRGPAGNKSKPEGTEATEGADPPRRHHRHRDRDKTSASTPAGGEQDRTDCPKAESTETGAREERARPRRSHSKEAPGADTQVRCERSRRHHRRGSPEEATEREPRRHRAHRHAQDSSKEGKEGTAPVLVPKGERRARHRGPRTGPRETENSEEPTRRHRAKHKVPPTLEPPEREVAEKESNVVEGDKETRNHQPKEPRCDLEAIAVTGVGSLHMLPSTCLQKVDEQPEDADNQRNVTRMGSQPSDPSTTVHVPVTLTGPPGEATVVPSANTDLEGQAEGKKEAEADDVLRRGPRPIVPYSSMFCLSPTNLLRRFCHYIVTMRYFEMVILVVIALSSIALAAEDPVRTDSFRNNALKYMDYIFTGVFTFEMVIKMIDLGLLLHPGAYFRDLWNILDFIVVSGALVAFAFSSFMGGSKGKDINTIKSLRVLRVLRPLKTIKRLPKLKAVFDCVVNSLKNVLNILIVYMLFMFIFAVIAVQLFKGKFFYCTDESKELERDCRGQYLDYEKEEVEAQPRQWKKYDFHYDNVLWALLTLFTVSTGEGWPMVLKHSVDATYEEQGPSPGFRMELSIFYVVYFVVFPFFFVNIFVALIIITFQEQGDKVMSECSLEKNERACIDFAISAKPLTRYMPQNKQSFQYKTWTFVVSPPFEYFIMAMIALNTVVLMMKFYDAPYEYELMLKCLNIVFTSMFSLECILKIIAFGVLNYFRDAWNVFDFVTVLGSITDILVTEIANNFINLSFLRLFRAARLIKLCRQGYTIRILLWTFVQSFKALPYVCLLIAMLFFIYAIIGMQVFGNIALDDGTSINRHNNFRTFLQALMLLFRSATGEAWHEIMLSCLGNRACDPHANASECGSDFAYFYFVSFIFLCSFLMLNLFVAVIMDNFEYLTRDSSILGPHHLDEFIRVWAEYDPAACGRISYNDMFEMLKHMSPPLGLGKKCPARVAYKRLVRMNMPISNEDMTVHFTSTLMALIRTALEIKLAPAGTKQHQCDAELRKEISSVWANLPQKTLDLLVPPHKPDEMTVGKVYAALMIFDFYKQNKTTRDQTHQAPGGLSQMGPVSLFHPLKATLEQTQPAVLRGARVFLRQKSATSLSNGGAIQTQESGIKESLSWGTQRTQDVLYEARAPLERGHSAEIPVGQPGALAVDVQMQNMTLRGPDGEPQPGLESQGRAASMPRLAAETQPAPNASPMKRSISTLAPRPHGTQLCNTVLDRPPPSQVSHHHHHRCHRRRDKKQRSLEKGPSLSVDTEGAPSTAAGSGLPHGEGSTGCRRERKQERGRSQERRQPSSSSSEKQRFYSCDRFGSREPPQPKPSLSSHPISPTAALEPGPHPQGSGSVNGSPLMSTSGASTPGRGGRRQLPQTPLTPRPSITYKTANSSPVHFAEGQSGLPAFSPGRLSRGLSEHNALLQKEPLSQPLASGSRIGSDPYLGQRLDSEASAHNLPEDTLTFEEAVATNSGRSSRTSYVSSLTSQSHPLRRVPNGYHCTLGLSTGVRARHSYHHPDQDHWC

[19] = target: A2A (h) (Homo sapiens, UniProt P29274); assay: biochemical; settings: read-out: % Inhibition of Control Specific Binding
[20] = target: M4 (h) (Homo sapiens, UniProt P08173); assay: biochemical; settings: read-out: % Inhibition of Control Specific Binding
[21] = target: beta 1 (h) (Homo sapiens, UniProt P08588); assay: biochemical; settings: read-out: % Inhibition of Control Specific Binding
[22] = target: mu (MOP) (h) (Homo sapiens, UniProt P35372); assay: biochemical; settings: read-out: % Inhibition of Control Specific Binding
[23] = target: 5-HT1B (Rattus norvegicus, UniProt P28564); assay: biochemical; settings: read-out: % Inhibition of Control Specific Binding
[24] = target: T3, PCAF (Homo sapiens, UniProt Q92831); format: binding
T3 sequence (Q92831 723-827 limits assumed): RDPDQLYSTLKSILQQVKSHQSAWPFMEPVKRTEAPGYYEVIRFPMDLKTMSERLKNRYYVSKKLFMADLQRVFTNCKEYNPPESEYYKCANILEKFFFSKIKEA

[25] = target: 5-HT transporter (h) (Homo sapiens, UniProt P31645); assay: biochemical; settings: read-out: % Inhibition of Control Specific Binding
[26] = target: H4 (h) (Homo sapiens, UniProt Q9H3N8); assay: biochemical; format: binding; settings: read-out: % Inhibition of Control Specific Binding
[27] = target: M1 (h) (Homo sapiens, UniProt P11229); assay: biochemical; settings: read-out: % Inhibition of Control Specific Binding
[28] = target: A3 (h) (Homo sapiens, UniProt P0DMS8); assay: biochemical; settings: read-out: % Inhibition of Control Specific Binding
Sequence of A3 (h) (P0DMS8 whole entry): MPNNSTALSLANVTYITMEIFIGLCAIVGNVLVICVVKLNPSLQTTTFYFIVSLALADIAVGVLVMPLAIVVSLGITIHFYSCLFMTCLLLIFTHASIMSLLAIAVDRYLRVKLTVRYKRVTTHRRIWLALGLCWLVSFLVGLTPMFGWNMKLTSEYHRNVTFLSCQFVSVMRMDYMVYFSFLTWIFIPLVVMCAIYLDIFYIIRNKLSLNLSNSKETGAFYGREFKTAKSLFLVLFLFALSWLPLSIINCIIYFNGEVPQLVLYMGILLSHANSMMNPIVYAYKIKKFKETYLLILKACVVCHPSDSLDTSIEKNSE

[29] = target: APJ (apelin) (h) (Homo sapiens, UniProt P35414); assay: biochemical; settings: read-out: % Inhibition of Control Specific Binding
[30] = target: GABAA1 (h) (alpha 1,beta 2,gamma 2) (Homo sapiens, UniProt P14867+P47870); assay: biochemical; format: binding; settings: read-out: % Inhibition of Control Specific Binding
Sequence of GABAA1 (h) (alpha 1,beta 2,gamma 2) (P47870 25-512): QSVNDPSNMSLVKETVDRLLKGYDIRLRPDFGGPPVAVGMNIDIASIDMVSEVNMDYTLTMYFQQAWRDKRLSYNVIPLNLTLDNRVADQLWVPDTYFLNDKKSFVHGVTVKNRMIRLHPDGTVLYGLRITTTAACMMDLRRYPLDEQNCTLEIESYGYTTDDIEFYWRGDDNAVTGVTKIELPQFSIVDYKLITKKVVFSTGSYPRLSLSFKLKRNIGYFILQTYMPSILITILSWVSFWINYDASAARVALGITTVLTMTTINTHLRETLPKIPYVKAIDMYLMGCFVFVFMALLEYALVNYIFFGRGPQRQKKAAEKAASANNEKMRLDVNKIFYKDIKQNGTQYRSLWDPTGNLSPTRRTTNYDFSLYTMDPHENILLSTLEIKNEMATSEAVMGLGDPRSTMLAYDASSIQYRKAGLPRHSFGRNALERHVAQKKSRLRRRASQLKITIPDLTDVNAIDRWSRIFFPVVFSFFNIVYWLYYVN
Sequence of GABAA1 (h) (alpha 1,beta 2,gamma 2) (P14867 28-456): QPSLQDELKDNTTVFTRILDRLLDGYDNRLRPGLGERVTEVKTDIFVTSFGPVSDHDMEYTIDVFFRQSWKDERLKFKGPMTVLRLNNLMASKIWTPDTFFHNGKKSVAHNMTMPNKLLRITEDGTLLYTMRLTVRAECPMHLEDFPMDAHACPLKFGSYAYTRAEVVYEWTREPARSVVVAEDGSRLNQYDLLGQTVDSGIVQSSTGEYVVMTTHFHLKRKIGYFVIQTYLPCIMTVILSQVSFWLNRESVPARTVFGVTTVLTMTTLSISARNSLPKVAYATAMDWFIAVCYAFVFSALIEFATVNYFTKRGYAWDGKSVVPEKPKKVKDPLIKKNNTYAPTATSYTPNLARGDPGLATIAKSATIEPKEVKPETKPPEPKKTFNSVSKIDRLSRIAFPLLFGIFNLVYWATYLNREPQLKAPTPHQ
Sequence of GABAA1 (h) (alpha 1,beta 2,gamma 2) (P18507 40-475, further chain): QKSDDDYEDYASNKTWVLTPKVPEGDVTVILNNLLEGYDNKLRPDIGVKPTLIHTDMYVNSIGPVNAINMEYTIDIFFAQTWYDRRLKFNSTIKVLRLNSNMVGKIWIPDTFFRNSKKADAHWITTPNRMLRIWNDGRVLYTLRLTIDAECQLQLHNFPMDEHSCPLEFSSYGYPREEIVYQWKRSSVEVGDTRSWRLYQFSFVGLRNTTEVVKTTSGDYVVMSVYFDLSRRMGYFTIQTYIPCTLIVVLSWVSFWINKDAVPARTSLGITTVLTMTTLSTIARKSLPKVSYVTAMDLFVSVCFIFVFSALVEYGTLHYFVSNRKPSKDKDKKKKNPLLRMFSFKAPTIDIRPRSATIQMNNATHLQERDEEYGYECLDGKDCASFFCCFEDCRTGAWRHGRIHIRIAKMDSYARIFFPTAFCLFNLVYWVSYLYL

[31] = target: PPARgamma (h) (Homo sapiens, UniProt P37231); assay: biochemical; settings: read-out: % Inhibition of Control Specific Binding
[32] = target: T4, TAF1(1) (Homo sapiens, UniProt P21675); format: binding
T4 construct: Human BRDs were subcloned into bacteria-expressing vectors; made in house; host or cells: bacteria
T4 sequence (P21675 1397-1505 limits assumed): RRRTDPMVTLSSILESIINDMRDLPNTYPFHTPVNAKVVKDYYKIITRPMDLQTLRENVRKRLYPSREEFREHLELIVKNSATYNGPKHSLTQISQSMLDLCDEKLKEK

CCOC(=O)Nc1cc(-c2ccc(C)c(NS(C)(=O)=O)c2)nn2c(C)nnc12 [BSP, ethyl (3-methyl-6-(4-methyl-3-(methylsulfonamido)phenyl)-[1,2,4]triazolo[4,3-b]pyridazin-8-yl)carbamate] was tested. Which growth inhibition [1] did it give?
Its growth inhibition is “strong growth inhibition”.

And the “effect on cell proliferation” value [2]?
Its value is “No significant effect”.

What about the inhibition at 10 µM [3] of the same molecule?
The inhibition at 10 µM was -1%.

And the inhibition at 10 µM [4]?
The inhibition at 10 µM was -2%.

And the inhibition at 10 µM [5]?
The inhibition at 10 µM was 5%.

What about the N [6] of the same molecule?
Its N is 1.09 ± 0.029.

And the TΔS [6]?
The TΔS was 4.06 kcal/mol.

What about the ΔG [6] of the same molecule?
Its ΔG is -6.67 kcal/mol.

And the “ΔH^obs” value [6]?
The value was -2.61 ± 0.088 kcal/mol.

What about the inhibition at 10 µM [7] of the same molecule?
Its inhibition at 10 µM is 5%.

And the inhibition at 10 µM [8]?
Its inhibition at 10 µM is -1%.

And the N [9]?
Its N is 1.11 ± 0.003.

And the TΔS [9]?
Its TΔS is 1.01 kcal/mol.

What about the “ΔH^obs” value [9] of the same molecule?
Its value is -8.62 ± 0.041 kcal/mol.

And the inhibition at 10 µM [10]?
The inhibition at 10 µM was 12%.

And the “% Inhibition of Control Specific Binding” value [11]?
Its value is -4.

And the “% Inhibition of Control Specific Binding” value [12]?
Its value is -2.

And the “% Inhibition of Control Specific Binding” value [13]?
The value was 11.

And the N [14]?
The N was 1.03 ± 0.011.

And the TΔS [14]?
The TΔS was 4.72 kcal/mol.

And the “ΔH^obs” value [14]?
Its value is -2.91 ± 0.041 kcal/mol.

What about the IC50 [15] of the same molecule?
The IC50 was 579 nM.

And the “% Inhibition of Control Specific Binding” value [16]?
Its value is 4.

And the inhibition at 10 µM [17]?
The inhibition at 10 µM was -1%.

And the inhibition at 10 µM [18]?
The inhibition at 10 µM was 16%.

And the inhibition at 10 µM [19]?
Its inhibition at 10 µM is 68%.

What about the inhibition at 10 µM [20] of the same molecule?
The inhibition at 10 µM was -6%.

And the inhibition at 10 µM [21]?
The inhibition at 10 µM was 4%.

And the inhibition at 10 µM [22]?
The inhibition at 10 µM was 1%.

What about the inhibition at 10 µM [23] of the same molecule?
Its inhibition at 10 µM is -13%.

What about the N [24] of the same molecule?
Its N is 0.95 ± 0.044.

And the TΔS [24]?
The TΔS was -0.83 kcal/mol.

What about the ΔG [24] of the same molecule?
The ΔG was -7.02 kcal/mol.

And the “ΔH^obs” value [24]?
The value was -7.85 ± 0.454 kcal/mol.

And the inhibition at 10 µM [25]?
The inhibition at 10 µM was -15%.

What about the inhibition at 10 µM [26] of the same molecule?
Its inhibition at 10 µM is 1%.

What about the inhibition at 10 µM [27] of the same molecule?
The inhibition at 10 µM was 39%.

And the inhibition at 10 µM [28]?
Its inhibition at 10 µM is 100%.

What about the inhibition at 10 µM [29] of the same molecule?
Its inhibition at 10 µM is -2%.

What about the inhibition at 10 µM [30] of the same molecule?
Its inhibition at 10 µM is 11%.

What about the inhibition at 10 µM [31] of the same molecule?
Its inhibition at 10 µM is 3%.

And the N [32]?
The N was 0.98 ± 0.010.

And the TΔS [32]?
The TΔS was 3.60 kcal/mol.

And the ΔG [32]?
Its ΔG is -6.94 kcal/mol.

What about the “ΔH^obs” value [32] of the same molecule?
Its value is -3.34 ± 0.046 kcal/mol.
